Data taken from patent US20130029964A1, “[5, 6] HETEROCYCLIC COMPOUND” (DAIICHI SANKYO COMPANY, LIMITED, priority 2010, published 2013).

Test system: ST2 cells, murine bone marrow-derived stromal cells
Experiment: Osteoblast differentiation test (ALP activity)
Assay type: cell-based
Conditions: Mus musculus, ST-2, 96 h, at 0.1 μg/mL, control group (0.1% DMSO) = 100%, four days of culturing, read-out: alkaline phosphatase activity
Method: ST2 cells, murine bone marrow-derived stromal cells, (obtained from RIKEN) were used.
In this test, α-MEM media (obtained from GIBCO BRL Cat. No. 10370-021) containing 10% (v/v) of inactivated calf serum (obtained from Hyclone Laboratories, Inc.) and 1% (v/v) of Penicillin-Streptomycin Liquid (obtained from GIBCO BRL Cat. No. 15140-122) (hereinbelow, abbreviated as 10%-FBS-αMEM) were used. In this test, all culturing was performed in a CO2 incubator (37° C., 95% humidity, 5% CO2).
The aforementioned cells were detached with 2 mL of a 0.25% trypsin solution (obtained from GIBCO BRL Cat. No. 15050-065) and dispersed in 10 mL of 10%-FBS-αMEM. Subsequently, the cells were collected by centrifugation (25° C., 800 rpm, five minutes). Then, a cell suspension containing 40000 of the cells/mL of 10%-FBS-αMEM was prepared. The cell suspension was then dispensed into 96-well plates (the product of Falcon), 100 μL per well, at a density of 4000 cells/well, followed by culturing for 24 hours. To the wells, except for the below-described well containing a control group, the compound was dispensed at final concentrations of 0.01, 0.03, 0.1, and 0.3 μg/ml. To the well of a control group, DMSO was dispensed at a final concentration of 0.1% (v/v). After four days of culturing, the activity of alkaline phosphatase (ALP) was measured in each group.
The measurement of ALP activity was performed as follows. That is, the medium in each well of the culture plates was completely removed. Each well was then washed by dispensing 100 μL of Dulbecco's phosphate buffer (obtained from GIBCO BRL Cat. No. 14190-144) and then removing it. A cell lysate solution containing 10 mM MgCl2 and 2% (v/v) TritonX-100 (Sigma) was prepared and dispensed at 50 μL/well, followed by stirring at room temperature for five minutes. An ALP substrate solution containing 50 mM diethanolamine (Wako Pure Chemical Industries, Ltd., Cat. No. 099-03112) and 20 mM p-nitrophenyl phosphate (Wako Pure Chemical Industries, Ltd., Cat. No. 147-02343) was prepared and dispensed at 50 μL/well, and the plates were left to stand at room temperature for 10 minutes. Subsequently, absorbance was measured by a microplate reader (Bio-Rad Laboratories, Inc.). Setting the measurement value of the control group of each plate at 100%, alkaline phosphatase activity (increase (%)) in the test compound-addition group was calculated, which was assessed as the degree of osteoblast differentiation.

| SMILES | activity at 0.1 µg/mL |
| --- | --- |
| Clc1ccn2c(N3CCC(OCCOC4CCOCC4)CC3)cnc2c1 [Example 139] | ≥ 200% |
| O=C(C1CC1)N1CCC(OCCOC2CCN(c3cnc4ccc(-c5ccncc5)cn34)CC2)CC1 [Example 140] | ≥ 200% |
| c1cc(-c2ccc3ncc(-c4ccc(OCCOC5CCOCC5)cc4)n3c2)ccn1 [Example 141] | ≥ 200% |
| c1cc(-c2ccc3ncc(-c4ccc(NCCOC5CCOCC5)cc4)n3c2)ccn1 [Example 142] | ≥ 200% |
| c1ccn2ncc(-c3ccc(NCCOC4CCOCC4)cc3)c2c1 [Example 143] | ≥ 200% |
| Fc1ccc2ncc(-c3ccc(OCCOC4CCOCC4)cc3)n2c1 [Example 144] | ≥ 200% |
| Cc1ccc2ncc(-c3ccc(OCCOC4CCOCC4)cc3)n2c1 [Example 145] | ≥ 200% |
| O=C(c1ccc(-c2ccc3c(-c4ccc(OCCO)cc4)cnn3c2)nc1)N1CCOCC1 [Example 146] | ≥ 200% |
| c1ccn2ncc(-c3ccc(OCCOC4CCOCC4)cc3)c2c1 [Example 147] | ≥ 200% |
| N#Cc1ccc2ncc(-c3ccc(OCCOC4CCOCC4)cc3)n2c1 [Example 148] | ≥ 200% |
| c1coc(-c2ccc3ncc(-c4ccc(OCCOC5CCOCC5)cc4)n3c2)n1 [Example 150] | ≥ 200% |
